Data from patent publication US20110263566A1 (priority 2008, published 2011).

Tests used:
Experiment in all cases: cells
BT-549 cells = settings: Homo sapiens, BT-549, 72 h, read-out: IC50 (microM) (BT549)
Protocol: (§1) To evaluate the expression status of PBK in several cell lines, western blot analysis was performed using crude cell lysate collected from those cells.
(§2) 100 micro-L of cell suspension was seeded onto 96-well microtiter plate (ViewPlate-96FTC, PerkinElmer). […] Cellular growth was determined using Cell Counting Kit-8 (DOJINDO) at 72 hours after the exposure of the candidate inhibitors. […] Accurate IC50 values were calculated as described previously.

HT-1197 cells = settings: Homo sapiens, HT1197, 72 h, read-out: IC50 (microM) (HT1197)
Protocol: as §1, §2

T47D cells = settings: Homo sapiens, 72 h, read-out: IC50 (microM) (T47D)
Protocol: as §1, §2

SMILES	IC50 (BT-549 cells)	IC50 (HT-1197 cells)	IC50 (T47D cells)
O=C(NCC1CCCNC1)c1ccc(O)c2[nH]c(C3CC3)nc12 (stereo not drawn) [Example 6, 2-Cyclopropyl-4-hydroxy-N-(piperidin-3-yl-methyl)-1H-benzo[d]imidazole-7-carboxamide]	30 µM	> 100 µM	55 µM
O=C(NCC1CCCCN1)c1ccc(O)c2[nH]c(C3CC3)nc12 (stereo not drawn) [Example 7, 2-Cyclopropyl-4-hydroxy-N-(piperidin-2-ylmethyl)-1H-benzo[d]imidazole-7-carboxamide]	9.5 µM	> 100 µM	11 µM
O=C(N[C@H]1CCCNC1)c1ccc(O)c2[nH]c(C3CC3)nc12 [Example 9, (S)-2-cyclopropyl-4-hydroxy-N-(piperidin-3-yl)-1H-benzo[d]imidazole-7-carboxamide]	0.73 µM	7.1 µM	1.5 µM
O=C(NC1CCNCC1)c1ccc(O)c2[nH]c(C3CC3)nc12 [Example 10, 2-cyclopropyl-4-hydroxy-N-(piperidin-4-yl)-1H-benzo[d]imidazole-7-carboxamide]	20 µM	> 100 µM	19 µM
O=C(NC1CCCNC1)c1ccc(O)c2[nH]c(C3CC3)nc12 (stereo not drawn) [Example 11, 2-cyclopropyl-4-hydroxy-N-(piperidin-3-yl)-1H-benzo[d]imidazole-7-carboxamide]	1.6 µM	44 µM	3.2 µM
O=C(NC1CCNC1)c1ccc(O)c2[nH]c(C3CC3)nc12 (stereo not drawn) [Example 12, 2-cyclopropyl-4-hydroxy-N-(pyrrolidin-3-yl)-1H-benzo[d]imidazole-7-carboxamide]	47 µM	> 100 µM	58 µM
O=C(NCC1CCCNC1)c1ccc(O)c2[nH]c(C3CCCC3)nc12 (stereo not drawn) [Example 15, 2-Cyclopentyl-4-hydroxy-N-(piperidin-3-ylmethyl)-1H-benzo[d]imidazole-7-carboxamide]	25 µM	> 100 µM	21 µM
O=C(N[C@H]1CCCNC1)c1ccc(O)c2[nH]c(C3CCCC3)nc12 [Example 16, (S)-2-Cyclopentyl-4-hydroxy-N-(piperidin-3-yl)-1H-benzo[d]imidazole-7-carboxamide]	0.37 µM	19 µM	2.6 µM
O=C(NCC1CCCCN1)c1ccc(O)c2[nH]c(-c3ccccc3)nc12 (stereo not drawn) [Example 18, 4-Hydroxy-2-phenyl-N-(piperidin-2-ylmethyl)-1H-benzo[d]imidazole-7-carboxamide]	31 µM	98 µM	15 µM
O=C(NC1CCCNC1)c1ccc(O)c2[nH]c(-c3cccs3)nc12 (stereo not drawn) [Example 35, 7-Hydroxy-N-(piperidin-3-yl)-2-(thiophen-2-yl)-1H-benzo[d]imidazole-4-carboxamide]	0.77 µM	49 µM	0.81 µM
O=C(N[C@@H]1CCCNC1)c1ccc(O)c2[nH]c(-c3cccs3)nc12 [Example 37, (R)-7-Hydroxy-N-(piperidin-3-yl)-2-(thiophen-2-yl)-1H-benzo[d]imidazole-4-carboxamide]	20 µM	> 100 µM	11 µM
O=C(N[C@H]1CCCNC1)c1ccc(O)c2[nH]c(-c3cccs3)nc12 [Example 38, (S)-7-Hydroxy-N-(piperidin-3-yl)-2-(thiophen-2-yl)-1H-benzo[d]imidazole-4-carboxamide]	0.46 µM	33 µM	0.36 µM
O=C(NCC1CCCNC1)c1ccc(O)c2[nH]c(-c3cccs3)nc12 (stereo not drawn) [Example 39, 7-Hydroxy-N-(piperidin-3-ylmethyl)-2-(thiophen-2-yl)-1H-benzo[d]imidazole-4-carboxamide]	15 µM	> 100 µM	8.6 µM
O=C(NC1CCNCC1)c1ccc(O)c2[nH]c(-c3cccs3)nc12 [Example 40, 7-Hydroxy-N-(piperidin-4-yl)-2-(thiophen-2-yl)-1H-benzo[d]imidazole-4-carboxamide]	73 µM	> 100 µM	13 µM
CN1CCCC(NC(=O)c2ccc(O)c3[nH]c(-c4cccs4)nc23)C1 (stereo not drawn) [Example 41, 7-Hydroxy-N-(1-methylpiperidin-3-yl)-2-(thiophen-2-yl)-1H-benzo[d]imidazole-4-carboxamide]	8.1 µM	24 µM	9.8 µM
O=C(NC1CCNC1)c1ccc(O)c2[nH]c(-c3cccs3)nc12 (stereo not drawn) [Example 44, 7-Hydroxy-N-(pyrrolidin-3-yl)-2-(thiophen-2-yl)-1H-benzo[d]imidazole-4-carboxamide]	15 µM	> 100 µM	20 µM
O=C(NCC1CCCCN1)c1ccc(O)c2[nH]c(-c3cccs3)nc12 (stereo not drawn) [Example 45, 7-Hydroxy-N-(piperidin-2-ylmethyl)-2-(thiophen-2-yl)-1H-benzo[d]imidazole-4-carboxamide]	29 µM	> 100 µM	7.8 µM
N[C@H]1CC[C@H](NC(=O)c2ccc(O)c3[nH]c(-c4cccs4)nc23)CC1 [Example 47, N-(4-Aminocyclohexyl)-7-hydroxy-2-(thiophen-2-yl)-1H-benzo[d]imidazole-4-carboxamide]	5.3 µM	58 µM	6.2 µM
O=C(NCC1CCCNC1)c1ccc(O)c2[nH]c(C3CC4CCC3C4)nc12 (stereo not drawn) [Example 48, 2-(Bicyclo[2.2.1]heptan-2-yl)-7-hydroxy-N-(piperidin-3-ylmethyl)-1H-benzo[d]imidazole-4-carboxamide]	20 µM	≥ 100 µM	49 µM
O=C(NC1CCCNC1)c1ccc(O)c2[nH]c(C3CC4CCC3C4)nc12 (stereo not drawn) [Example 49, 2-(Bicyclo[2.2.1]heptan-2-yl)-7-hydroxy-N-(piperidin-3-yl)-1H-benzo[d]imidazole-4-carboxamide]	0.65 µM	14 µM	4.1 µM
O=C(N[C@H]1CCCNC1)c1ccc(O)c2[nH]c(-c3ccc(Br)s3)nc12 [Example 51, (S)-2-(5-bromothiophen-2-yl)-7-hydroxy-N-(piperidin-3-yl)-1H-benzo[d]imidazole-4-carboxamide]	0.18 µM	5.7 µM	0.14 µM
O=C(N[C@H]1CCCNC1)c1ccc(O)c2[nH]c(C3CC4CCC3C4)nc12 (stereo partly drawn) [Example 52, 2-(Bicyclo[2.2.1]heptan-2-yl)-7-hydroxy-N-((S)-piperidin-3-yl)-1H-benzo[d]imidazole-4-carboxamide]	0.43 µM	19 µM	2.3 µM
NC12CC3CC(C1)CC(NC(=O)c1ccc(O)c4[nH]c(C5CC6CCC5C6)nc14)(C3)C2 (stereo not drawn) [Example 53]	4.6 µM	24 µM	5.2 µM
NC12CC3CC(C1)CC(NC(=O)c1ccc(O)c4[nH]c(-c5cccs5)nc14)(C3)C2 [Example 54, 2-(Thiophene-2-yl)-7-hydroxy-N-(adamantate-3-ylamino)-1H-benzo[d]imidazole-4-carboxamide]	3.3 µM	10 µM	1.6 µM
NC1CCCC(NC(=O)c2ccc(O)c3[nH]c(C4CC5CCC4C5)nc23)C1 (stereo not drawn) [Example 55, N-(3-Aminocyclohexyl)-2-(bicyclo[2.2.1]heptan-2-yl)-7-hydroxy-1H-benzo[d]imidazole-4-carboxamide]	2.9 µM	74 µM	9.1 µM
N[C@H]1CC[C@@H](CNC(=O)c2ccc(O)c3[nH]c(C4CC5CCC4C5)nc23)CC1 (stereo partly drawn) [Example 56, N-{[(cis)-4-Aminocyclohexyl]methyl}-2-(bicyclo[2.2.1]heptan-2-yl)-7-hydroxy-1H-benzo[d]imidazole-4-carboxamide]	10 µM	61 µM	30 µM
O=C(N[C@H]1CCCNC1)c1ccc(O)c2[nH]c(-c3ccc(N4CCNCC4)s3)nc12 [Example 57, (S)-7-hydroxy-2-(5-(piperazin-1-yl)thiophen-2-yl)-N-(piperidin-3-yl)-1H-benzo[d]imidazole-4-carboxamide]	1.1 µM	33 µM	1.1 µM
O=C(NC[C@@H]1CCCNC1)c1ccc(O)c2[nH]c(Cc3cccs3)nc12 [Example 58, (R)-7-hydroxy-N-(piperidin-3-ylmethyl)-2-(thiophen-2-ylmethyl)-1H-benzo[d]imidazole-4-carboxamide]	13 µM	21 µM	24 µM
O=C(N[C@H]1CCCNC1)c1ccc(O)c2[nH]c(Cc3cccs3)nc12 [Example 59, (S)-7-hydroxy-N-(piperidin-3-yl)-2-(thiophen-2-ylmethyl)-1H-benzo[d]imidazole-4-carboxamide]	2.9 µM	76 µM	11 µM
O=C(NC[C@H]1CCCNC1)c1ccc(O)c2[nH]c(Cc3cccs3)nc12 [Example 60, (S)-7-hydroxy-N-(piperidin-3-ylmethyl)-2-(thiophen-2-ylmethyl)-1H-benzo[d]imidazole-4-carboxamide]	49 µM	33 µM	42 µM
